Molecule `CSCc1c(Cl)ccc(C(=O)c2cnoc2C2CC2)c1SC` displayed a melting point of 79.9 to 80.5 °C.
Then `COC(=O)CCc1cccc(OCCC2Oc3ccccc3N(Cc3cccc(Cl)c3)C2=O)c1` (stereo not given), with 92 to 94 °C.
Then `COC(=O)c1nc(Cl)cc(Cl)c1N`, with 127 to 128 °C; and `CC(C)(C)OC(=O)c1ccc(N2CC(CN=[N+]=[N-])OC2=O)cc1F` (stereo not given), with 91 to 92 °C.
Then `OC1CSC(Oc2cc(-c3cncnc3)cnc2Cl)C(O)C1O` (stereo not given), with 174 to 189 °C; and `COC(=O)c1nc(C(=O)c2ccc(N)c(OC)c2)n2ccccc12`, with 63 °C.
Turning to `COc1cc2c(cc1Cl)CC(C)OC2c1ccc([N+](=O)[O-])cc1` (stereo not given), the melting point was in the range of 118 to 120 °C.
Regarding `CC(C)(C)[Si](C)(C)O[C@H]1CCC[C@@]2(C)[C@H]1CC[C@@H]2[C@]1(C)CC(=O)CO1`, the melting point was 52 °C.
In the case of `COc1ccc(C(=O)n2c(C)c(Cc3cc(=O)n(C4CCCCC4)[nH]3)c3cc(OC)ccc32)cc1` it was 88 to 90 °C.
Consider `Cc1cn(C)c2c1N(C(=O)CCN1CCN(C)CC1)c1ccccc1NC2=O`, for which the melting point came out at 187 °C.
In the case of `CC(=C[N+](=O)[O-])NCCN(C)Cc1ccc(Cl)nc1` it was 78 to 80 °C; in that of `CCC(=Nc1ccc2nc(N3CCN(C)CC3)c(N3CCN(C)CC3)nc2c1)N(C)C`, 173 to 175 °C; in that of `CCCN(C)C(=O)COC1c2ccccc2C(=O)N1c1ccc2ccc(OC)nc2n1` (stereo not given), 160 °C.
Then `Cc1cccc2nc3c(cc12)oc1cccc(Cl)c13`, with 169 to 172 °C; and `COC(=O)C#CC(=O)c1cccc(C)c1`, with 36 to 38 °C; and `CCOC(=O)/C=C/c1cnn(C)c1C`, with 82 to 83 °C.
Then `COc1cc(N)c([N+](=O)[O-])c(OC(F)F)c1OC`, with 141 to 142 °C; and `O=C(CCCc1ccc(Cl)cc1)c1ccc(OCc2ccc3ccccc3n2)cc1`, with 140 to 142 °C; and `Nc1ccc(Br)cc1CS(=O)(=O)c1ccccc1`, with 140 to 141 °C.
Take `Cc1nc(-c2ccc(Cn3sccc3=O)cc2)cs1`: the melting point was in the range of 150 to 152 °C.
Then `O=C(Cc1c(-c2ccccc2)c2cc3c(cc2oc1=O)C(O)CC3)Nc1ccc(F)cc1C(F)(F)F` (stereo not given), with 217 to 218 °C.
For `NS(=O)(=O)c1cc(C(=O)O)cc(S)c1Cl`, the melting point was in the range of 263 to 264 °C.
Then `Cc1csc(N2CCN(Cc3ccc(C(=O)n4nccc4C)cc3)C2=O)n1`, with 96 to 97 °C.
In the case of `O=C(O)c1cc2cc(CCNS(=O)(=O)c3ccc(Cl)cc3)ccc2o1` it was 193 to 195 °C; in that of `CC(C)(C)CC(=O)Nc1ccc2oc3c(c2c1)CCCCCC3`, 157 to 158 °C.
On to `CC(C)(c1ccccc1)c1ccc(N)c([N+](=O)[O-])c1`, for which the melting point is 92 to 94 °C.
In the case of `COn1cc(C(=O)O)c(=O)c2c3sc(=O)n(C)c3ccc21` it was more than 300 °C.
Take `CCOc1ccc(Oc2ccc(OCc3cc(F)ccc3F)cc2)c(N)c1`: the melting point was 72 to 73.5 °C.
Then `CC(=O)OC1CCC2(CO)C(CCC3C4=CCC(OC(=O)C(C)(C)C)C4(C)CCC32)C1` (stereo not given), with 133 to 134 °C; and `O=C(NCCO)C(F)(OC(F)(F)C(F)(F)C(F)(F)F)C(F)(F)F` (stereo not given), with 69 to 72 °C; and `O=C1C2CCCC(C(=O)N2Cc2ccccc2)N1Cc1ccccc1`, with 201 to 202 °C.
Then `CNc1ccccc1C(=O)n1nc(O)c2cc(N)ccc21`, with 169 to 170 °C; and `COc1cc2c(cc1OC)CCCC(C(=O)N1CCN(C(=S)c3cc(OC)c(OC)c(OC)c3)CC1)=C2`, with 172 to 173 °C.
Then `CCN1CCCc2cc(C=C3SC(=O)NC3=O)ccc21`, with 238 to 241 °C; and `O=C1CCOc2cc(S)ccc21`, with 144 to 145 °C.
Turning to `COC(=O)c1ccc2nc(C(C)C)c(C(C)C)nc2c1`, the melting point was 53 to 55 °C.
In the case of `CN1C(=O)CC[C@]2(C)c3ccc(-c4cc(F)c([N+](=O)[O-])cc4F)cc3CC[C@@H]12` it was 130 to 140 °C.
In the case of `CC(=O)N(C)CC(c1ccc(Cl)cc1)c1ccc(Cl)cc1` it was 103 to 104 °C; in that of `OC[C@@H](O)[C@@H](O)[C@H](O)[C@H](O)CCl`, 125 to 127 °C; in that of `CN(NC(=O)OC(C)(C)C)C(=O)C(C)(C)ON1C(=O)c2ccccc2C1=O`, 140 to 145 °C.
Then `COc1ccc2nc(-c3cc(C(F)(F)F)nn3-c3ccc(S(N)(=O)=O)cc3)sc2c1`, with 236 to 237 °C; and `COc1ccc(C2(c3cccc(-c4ccncc4)c3)N=C(N)N(C)C2=O)cc1C` (stereo not given), with 175 °C; and `O=C(Oc1ccccc1)c1cccc([N+](=O)[O-])c1Cl`, with 46 to 48 °C.
The molecule `CC(=O)Nc1cc(Cl)ccc1CCOC(C)=O` came in with a melting point of 129 °C.
In the case of `CCOC(=O)C(=CNc1cnsn1)C(=O)c1cc(F)c(F)cc1F` it was 117 to 118 °C; in that of `Cc1cc(C)cc(C(OC(C)C(c2ccccc2)c2ccccc2)N(C)C(=O)c2ccccc2)c1` (stereo not given), 89 to 91 °C.
Then `CCCCCCCCCCC(O)C1CCC(C2CCC(C(O)CCCCCCCCCC(O)CC3=CC(C)OC3=O)O2)O1` (stereo not given), with 69 to 70 °C; and `CCCCCCCCCCCCc1cnn(C(C(=O)Nc2c(OC)cc(OC)cc2OC)c2ccccc2)n1` (stereo not given), with 123 to 125 °C.
`CCCCCCCCCCCc1[nH]c2ccc(C(=O)OC)cc2c1C=O` registered a melting point of 162 to 165 °C.
In turn, `CCCc1nc2c(N)nc3ccccc3c2n1CCCCCC(=O)N1CCOCC1` had a melting point of 149 to 151 °C.
`CC#CC(=O)Nc1ccc(-n2nc(C(F)(F)F)cc2C(F)(F)F)cc1` registered a melting point of 220 to 221 °C.
As for `Cc1cc(C(C)(C)C)c(O)c(C)c1COC(=O)c1cccc(C(=O)OCc2c(C)cc(C(C)(C)C)c(O)c2C)c1`, the melting point was in the range of 155 to 156 °C.
In the case of `CCCCCCCCc1c(N)nc(-n2cncn2)nc1CC` it was 90 to 91 °C.
Then `CN(C)CCNC(=O)c1ccccc1-c1nnc(CSCCOc2ccccc2)o1`, with 80 to 85 °C; and `O=C(O)Cc1c(C(=O)c2cccc(-c3ccco3)c2)[nH]c2cc(Cl)ccc12`, with 246 to 249 °C; and `NC(=O)CCc1ccc(-c2nc(=O)c3ccccc3s2)nc1`, with 248 °C.
Then `Brc1ccc2c(c1)OCCN2C1CCOCC1`, with 66.2 °C; and `O=[N+]([O-])c1oc2c(CCO)cccc2c1-c1ccccc1`, with 133 to 136 °C; and `COc1ccc(COC(=O)C2N(c3c(C)cccc3C)C(=N)C(C)N2c2c(C)cccc2C)cc1` (stereo not given), with 135 to 137 °C.
`O=C(c1ccc([N+](=O)[O-])cc1)N1CCOCC1` gave a melting point of 90 to 91 °C.
In the case of `CN(C)C(=O)n1cc(C(=O)C2CSC(c3cccnc3)N2)c2ccc(Oc3ccc(F)cc3)cc21` (stereo not given) it was 72 to 75 °C.
`COc1cccc2c1C13CCNC(C2)C1(O)CCC(=O)C3` (stereo not given) came in with a melting point of 137 to 139 °C.
Molecule `CCOC(=O)Cc1cc(C)c(C(=O)c2ccc([N+](=O)[O-])cc2)n1C` displayed a melting point of 148 to 149 °C.
In the case of `Oc1c(-c2ccccc2)nn(Cc2ccccc2)c1-c1ccccc1` it was 194 to 195 °C.
Then `N#Cc1ccc(N2Cc3ccccc3C2)c2ccccc12`, with 156 to 158 °C; and `O=C(NCc1ccc(Cl)cc1)c1cnc2cc(C#CCO)ccc2c1O`, with 218 to 220 °C.
As for `COC(=O)c1cccc2c1NCC2`, the melting point is 70 to 73 °C.
Molecule `c1cc(-c2n[nH]c3c2Cc2ccc(CN4CCSCC4)cc2-3)cs1` displayed a melting point of 193 to 195 °C.
`O=C1CC(=O)NC(c2cccc(Cl)c2)=N1` displayed a melting point of 256 to 257 °C.
Then `CCOC(=O)c1[nH]c2cc(Cl)cc(Cl)c2c1NCC(=O)c1ccc([N+](=O)[O-])cc1`, with 283 to 286 °C.
Then `CCOC(=O)C1=C(C)Nc2c(c(C)nn2C)C1c1ccccc1[N+](=O)[O-]` (stereo not given), with 194 to 198 °C; and `Cc1cn(C(C)C(=O)N(C)C)nc1-c1ccc(Cl)cc1` (stereo not given), with 99.5 to 101 °C.
For `COCc1cc(O)c2nc(C)c(C)n2c1`, the melting point fell in the range of 164 to 165 °C.
Then `O=Cc1cc([N+](=O)[O-])c(O)c(O)c1Cl`, with 193 to 195 °C; and `CN1C=Nc2cc(Cl)c3cc4ccccc4cc3c2C1`, with 236 °C; and `CC(CNc1nc(Cl)ncc1Cl)NS(C)(=O)=O` (stereo not given), with 160 °C.
Then `Cc1cc2c(s1)CCCc1cc(=O)n(-c3ccc(Cl)cc3)nc1-2`, with 150 to 151 °C; and `CN(C(=O)Nc1ccc(Cl)c(Cl)c1)S(=O)(=O)C(C)(C)C`, with 116 °C.
As to `COc1cc(C(C)=O)ccc1OC1CCCC1`, the melting point lay within 55 to 56 °C.
In the case of `CN(CCC=C1c2ccccc2C=Cc2ccccc21)CCC(=O)O` it was 119 to 120 °C.
Then `COc1cc2ncc(C#N)c(Nc3ccc4sc(C)nc4c3)c2cc1OC`, with 118 to 120 °C.
In the case of `Cc1cc(C)cc(-c2ccc3c(c2)CC[C@H]2N(C)C(=O)CC[C@]32C)c1` it was 129 to 130 °C; in that of `O=C(Nc1ccccc1)OCC(=O)c1ccccc1`, 146 to 148 °C; in that of `Cc1c(C2=CCC(c3cccc(F)c3)(N(C)C)CC2)[nH]c2ccccc12` (stereo not given), 157 to 163 °C.
As for `CCOC(=O)c1c(O)c2c(CC)nc(CC)cc2[nH]c1=O`, the melting point lay in the range of 159 to 160 °C.
For `O=C1Nc2ccccc2SC1c1ccccc1Cl` (stereo not given), the melting point was found to be 200 °C.
In the case of `COc1ccc(Sc2ccc(NC(=N)N)cc2)cc1` it was 140 to 141 °C; in that of `CS(=O)c1ccc(-n2cnc3ccc(-c4nnc(SCc5cccc(C(F)(F)F)c5)o4)cc32)cc1` (stereo not given), 88 to 91 °C.
Turning to `O=c1oc2ccc(-c3ccc(F)cc3F)cc2c(=O)n1-c1ccc(Cl)cc1F`, the melting point fell in the range of 176 to 177 °C.
In the case of `COc1ccc(C(=O)Cc2ccccc2)cc1` it was 68 to 69 °C.

Usually melting point stands for the temperature of the solid-liquid transition.

(Values after a melting point compilation (Tetko et al.; mined from patent text by program, amines drawn as free bases though some values may be those of a salt).)
